How the values were obtained:
in vitro = details: for Prediction (penetration into the CNS): class from PAMPA-BBB P e; for Papp at 2.5 h: pig, PAMPA, pH 7.4
Procedure: To assess BBB permeability, a parallel artificial membrane permeability assay (PAMPA)-BBB was performed, which predicts passive BBB permeability using a brain lipid porcine membrane.
The prediction of the brain penetration was evaluated using a PAMPA-BBB. […] Next, 100 μL of these stock solutions were added to a solution of 1400 μL of EtOH and 3500 μL of PBS at pH 7.4, to reach 30% of EtOH concentration in the experiment. These solutions were filtered, using Filter PDVF membrane units (diameter 30 mm, pore size 0.45 μm, from Symta). After this, the acceptor 96-well microplate (Multiscreen, catalogue no. MAMCS9610, from Millipore) was filled with 180 μL of PBS/EtOH (70/30). […] After 5 min, 180 μL of each compound solution was added. 1–2 mg of each selected compound was dissolved in 1500 μL of EtOH and 3500 μL of PBS at pH 7.4, filtered, and then added to the donor 96-well plate to determine their ability to cross the brain barrier. After this, the donor plate was carefully put on the acceptor plate to form a “sandwich” and incubated for 2.5 h at 25 °C. During this period, the compounds diffused from the donor plate through the brain lipid membrane into the acceptor plate. Afterward, the donor plate was removed. A 96-well plate UV reader (Thermoscientific, Multiskan spectrum) was used to determine the concentration of compounds and commercial drugs in the acceptor and donor wells. Every sample was analyzed at three to five wavelengths, in three wells, and in two independent runs. […] Ten quality control compounds (previously mentioned) of known BBB permeability were included in each experiment to validate the analysis set.

AChE = AChE (Electrophorus electricus, UniProt O42275); experiment: Kinetic analysis (Lineweaver–Burk), AChE; format: biochemical; details: Lineweaver–Burk plots, substrate 50–800 μM
Chain of AChE (O42275 24-633): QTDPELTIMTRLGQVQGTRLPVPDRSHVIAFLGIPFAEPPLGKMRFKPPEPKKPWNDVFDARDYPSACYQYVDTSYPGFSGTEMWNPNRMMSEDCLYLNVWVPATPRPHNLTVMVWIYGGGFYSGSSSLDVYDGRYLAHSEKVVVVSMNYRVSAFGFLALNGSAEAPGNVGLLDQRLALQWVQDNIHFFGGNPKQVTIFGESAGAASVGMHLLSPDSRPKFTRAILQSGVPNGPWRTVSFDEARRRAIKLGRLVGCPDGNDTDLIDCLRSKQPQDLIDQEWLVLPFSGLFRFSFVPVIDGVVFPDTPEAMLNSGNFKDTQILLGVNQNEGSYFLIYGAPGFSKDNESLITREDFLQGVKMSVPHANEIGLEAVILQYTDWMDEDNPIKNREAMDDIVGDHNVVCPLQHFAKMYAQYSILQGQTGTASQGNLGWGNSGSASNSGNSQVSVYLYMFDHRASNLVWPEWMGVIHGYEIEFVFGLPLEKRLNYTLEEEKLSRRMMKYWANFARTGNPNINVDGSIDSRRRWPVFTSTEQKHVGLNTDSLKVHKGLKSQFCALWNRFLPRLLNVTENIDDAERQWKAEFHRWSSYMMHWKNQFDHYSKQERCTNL
Procedure: (§1) Based on the computational predictions, derivatives 10 (series A) and 11r (series B) were initially expected to interact with both CAS and PAS of AChE and BChE. However, to better understand the actual mechanism of action of these compounds, kinetic studies were performed (Figure ). […].
(§2) […]. The enzymatic reactions and measurements were performed using the same assay conditions, as described above for the inhibition of both enzymes. All experiments were performed in triplicate. Linear regression analysis was performed with GraphPad Prism 8.0.2 (GraphPad Software Inc.).

P-glycoprotein (P-gp) = biological target: T1, P-glycoprotein (P-gp) (Homo sapiens, UniProt P08183); experiment: Calcein-AM-assay in hMEC/D3 cells; format: cell-based; details: 1, 10, 50 and 100 μM
T1 construct: endogenous in cells; host or cells: hMEC/D3 cells
T1 sequence (P08183 whole entry): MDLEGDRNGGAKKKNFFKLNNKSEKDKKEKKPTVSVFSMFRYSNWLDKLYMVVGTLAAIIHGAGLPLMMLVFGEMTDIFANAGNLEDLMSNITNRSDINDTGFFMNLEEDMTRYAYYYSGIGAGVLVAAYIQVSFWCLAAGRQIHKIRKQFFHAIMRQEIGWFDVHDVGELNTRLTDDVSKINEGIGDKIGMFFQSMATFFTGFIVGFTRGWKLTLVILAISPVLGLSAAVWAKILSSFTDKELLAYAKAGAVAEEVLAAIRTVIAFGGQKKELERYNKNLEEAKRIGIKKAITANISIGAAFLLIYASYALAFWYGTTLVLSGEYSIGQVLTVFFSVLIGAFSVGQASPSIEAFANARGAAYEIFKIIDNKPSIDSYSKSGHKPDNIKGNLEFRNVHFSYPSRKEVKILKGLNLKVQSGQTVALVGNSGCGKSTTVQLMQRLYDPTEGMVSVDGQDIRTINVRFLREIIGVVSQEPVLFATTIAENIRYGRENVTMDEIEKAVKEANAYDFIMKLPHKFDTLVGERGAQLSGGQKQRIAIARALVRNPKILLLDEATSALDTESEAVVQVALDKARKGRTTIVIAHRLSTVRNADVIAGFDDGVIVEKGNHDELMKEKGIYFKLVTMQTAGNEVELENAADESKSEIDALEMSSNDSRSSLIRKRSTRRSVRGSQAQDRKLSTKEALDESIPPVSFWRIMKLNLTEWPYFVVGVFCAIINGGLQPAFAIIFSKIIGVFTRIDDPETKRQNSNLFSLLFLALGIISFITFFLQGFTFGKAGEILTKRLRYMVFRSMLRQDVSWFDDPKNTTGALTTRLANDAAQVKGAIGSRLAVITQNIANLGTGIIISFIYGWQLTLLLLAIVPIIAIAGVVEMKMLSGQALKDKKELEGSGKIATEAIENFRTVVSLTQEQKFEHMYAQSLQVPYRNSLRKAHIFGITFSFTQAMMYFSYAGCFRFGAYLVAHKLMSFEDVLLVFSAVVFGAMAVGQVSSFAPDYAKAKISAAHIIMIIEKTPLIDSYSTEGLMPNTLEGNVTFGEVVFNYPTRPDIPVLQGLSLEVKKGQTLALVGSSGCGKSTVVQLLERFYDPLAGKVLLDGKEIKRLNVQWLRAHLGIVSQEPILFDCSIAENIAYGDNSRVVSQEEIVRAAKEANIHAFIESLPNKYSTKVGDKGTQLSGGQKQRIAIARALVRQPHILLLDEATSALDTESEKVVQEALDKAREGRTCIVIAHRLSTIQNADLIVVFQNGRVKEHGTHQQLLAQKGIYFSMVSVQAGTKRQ
Procedure: To complement this approach and better understand whether these compounds may be substrates of such transporters, we next employed the calcein-AM-assay. This assay is particularly useful for assessing P-glycoprotein (P-gp), a major efflux transporter at the BBB that actively limits drug accumulation in the brain. To investigate potential interactions with P-gp, compounds 10, 11q-s were tested at concentrations of 1 μM, 10 μM, 50 μM and 100 μM, using the calcein-AM-assay in hMEC/D3 cells (Figure ). […] Therefore, these compounds are not expected to be P-gp substrates and may have favorable capacity to cross the BBB via passive diffusion, making them promising candidates for CNS drug development. […].
For all compounds tested, stock solutions were prepared in DMSO. Dilutions were then made with Krebs-Ringer buffer (KRB). […] Fluorescence was measured using a Tecan Infinite 200 Pro plate reader with λ excitation = 485 nm and λ emission = 535 nm. Each test compound was measured with n = 3, control and background were measured with n = 3. All fluorescence values were corrected by subtracting the background fluorescence. The increase in cellular fluorescence caused by a test compound was referred to the fluorescence of the control. […]

BChE = biological target: T2, BChE (Equus caballus, UniProt P81908); experiment: Kinetic analysis (Lineweaver–Burk), BChE; format: biochemical; details: Lineweaver–Burk plots, substrate 50–800 μM
T2 construct: eqBChE (equine serum butyrylcholinesterase); from tissue; host or cells: equine serum
T2 sequence (P81908 whole entry): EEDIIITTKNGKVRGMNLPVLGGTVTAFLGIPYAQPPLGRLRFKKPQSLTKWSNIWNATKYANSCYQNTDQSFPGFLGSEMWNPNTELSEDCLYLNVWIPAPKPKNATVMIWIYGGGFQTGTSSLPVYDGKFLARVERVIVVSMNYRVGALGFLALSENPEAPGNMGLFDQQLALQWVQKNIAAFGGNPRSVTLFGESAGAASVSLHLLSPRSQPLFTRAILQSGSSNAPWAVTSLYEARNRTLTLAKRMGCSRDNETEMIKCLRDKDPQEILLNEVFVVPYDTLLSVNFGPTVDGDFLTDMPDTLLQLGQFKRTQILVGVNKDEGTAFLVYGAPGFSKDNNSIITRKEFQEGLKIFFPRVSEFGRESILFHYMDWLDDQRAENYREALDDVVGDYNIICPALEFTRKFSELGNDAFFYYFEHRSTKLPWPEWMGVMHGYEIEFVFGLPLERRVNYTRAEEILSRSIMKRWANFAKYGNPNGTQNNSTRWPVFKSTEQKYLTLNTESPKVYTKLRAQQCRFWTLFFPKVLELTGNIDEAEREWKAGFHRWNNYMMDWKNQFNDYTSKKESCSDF
Procedure: as §1, §2

[1] = biological target: T3, eqBChE (equine serum butyrylcholinesterase) (Equus caballus, UniProt P81908); experiment: Cholinesterase inhibition assay (modified Ellman's method), eqBChE; format: biochemical
T3 construct: eqBChE (equine serum butyrylcholinesterase); from tissue; host or cells: equine serum
T3 sequence (P81908 whole entry): as above
Source text: Compound series A and B were initially screened for their cholinesterase activity against eeAChE (Electrophorus electricus AChE) and eqBChE (equine serum butyrylcholinesterase), using an adaptation of the Ellman’s method. […]. […] Similarly, replacing the terminal triple bond in 7l with a nitrile group reduced its activity, while replacing the O-propargyl group with an N,N-dipropargyl group in 10 enhanced the inhibition of both enzymes, particularly BChE (Table ). The installation of an additional aryl ring in 7o further improved AChE inhibition, slightly increasing selectivity toward this enzyme. […]. […]. […]. The inhibitory activity of the synthesized compounds toward eeAChE and eqBChE was evaluated spectrophotometrically through a 96-well microplate modified Ellman’s method. The solutions of both enzymes were prepared as 0.025 U/mL in phosphate buffer at pH 7, from stock solutions of 5.05 U/mL and 7.50 U/mL, respectively. The stock solutions for the target compounds (0.1 M) were prepared in dimethyl sulfoxide (DMSO). […] The reaction mixture was prepared with 100 μL of the enzyme (eeAChE or eqBChE) and 50 μL of the test compound (or DMSO/water, not exceeding 0.2% of DMSO in the wells; i.e blank samples). After 5 min of the preincubation period at 37 °C, 50 μL of ATChI or BTChI and 50 μL of DTNB were added to each well, thus initiating the enzymatic reaction. The absorbance values were measured at 415 nm, for a total of 7.5 min, at every 2.5 min, using a microplate reader (Synergy multimode reader; BioTek). […]. All experiments were performed in triplicate.

COc1ccc2c(=O)c3cc4c(cc3oc2c1)-c1cc(Cl)ccc1OC4 [Compound 11r, 2-Chloro-11-methoxy-6H,8H-chromeno[3,4-b]xanthen-8-one]
Prediction (penetration into the CNS) (in vitro): CNS+ (High BBB permeation predicted (CNS+) P e > 3.93)
Papp at 2.5 h (in vitro): 7.12 ± 0.89 ×10⁻⁶ cm/s
Type of inhibition, AChE (AChE): reversible competitive inhibition
Interaction with P-gp (intracellular calcein fluorescence) (P-glycoprotein (P-gp)): unlikely to be actively effluxed from the brain
Type of inhibition, BChE (BChE): reversible competitive inhibition
IC50 [1]: 6.3 ± 0.6 µM

C#CCN(CC#C)c1ccccc1/C=C/c1cc(=O)c2ccccc2o1 [Compound 10, (E)-2-{2-[Di(prop-2-yn-1-yl)amino]styryl}-4H-chromen-4-one]
Prediction (penetration into the CNS) (in vitro): CNS+ (High BBB permeation predicted (CNS+) P e > 3.93)
Papp at 2.5 h (in vitro): 11.6 ± 3.39 ×10⁻⁶ cm/s
Type of inhibition, AChE (AChE): reversible competitive inhibition
Interaction with P-gp (intracellular calcein fluorescence) (P-glycoprotein (P-gp)): clear inhibitory effect on P-gp activity
Type of inhibition, BChE (BChE): reversible competitive inhibition
IC50 [1]: 5.9 ± 0.4 µM

Reference: article PMC12818745 (ACS Chemical Neuroscience, 2025)
